Assay results taken from US20230255927A1 (ELANCO TIERGESUNDHEIT AG, priority 2022, published 2023).
Marks after values point to notes of the source that are not given here.

Tested on: lactating dairy cattle
Assay: Combined analysis of Wisconsin and New York Studies
Type: in vivo
Parameters: DMI / NEL: unit not given here
Conditions: for Milk protein percentage: all treatments
Procedure: The instant example provides the combined analysis of data from the two studies (Wisconsin Study and New York Study). The two studies were combined statistically to explore effects on milk production efficiency and other variables associated with efficiency. By effectively doubling pen numbers an increase in power of the analysis was provided. Analysis of these combined datasets was performed in various ways, with the inclusion of either weekly milk yield averages or sample day milk yields to calculate milk component yields, component corrected yields, and feed efficiency. Further, the combined dataset was analyzed using data collected from all experimental weeks as well as the exclusion of data from the first three weeks of experimental treatment feeding. This was done to exclude any shifts in response variables while the rumen environment was adapting to the treatment provided. Materials & Methods: All data from both experimental locations were combined and statistically analyzed as a longitudinal experiment design through SAS version 9.4 (SAS Institute Inc., Cary, N.C.). Experimental response variables, excluding body condition score (BCS), were analyzed using PROC MIXED and […] statements to compare treatment means using the following model: γijklm=μ+[…] Where γijklm=an individual observation of the response variable analyzed, Ti=the i^th dietary treatment, Wj=the j^th experimental week, TWij=the interaction of the i^th treatment with the j^th experimental week, Lk=the k^th experimental location, Pl(i*k)=the 1th pen within the i^th treatment and k^th experimental location, WPjl(i*k)=the interaction of the j^th experimental week with the 1th pen within the i^th treatment and k^th experimental location, Cm(l*i*k)=the m^th cow within the 1th pen, the i^th treatment and k^th experimental location, BXmlik=the covariate observation obtained after three weeks of feeding a common diet to all treatment groups, and ∈ijklmn=the random error of the m^th cow within the 1th pen, the i^th treatment and the k^th location. […] Data were analyzed with pen as the experimental unit and cow as the observational unit. Dietary treatment and experimental week were considered fixed effects, whereas location, pen and cow were considered random effects. An auto-regressive covariance structure [AR(1)] was used to analyze repeated measurements (week of experimental period) with cow nested in pen within treatment as the subject. For pen level observations (DMI, production efficiency and NEL measurements), the main effect of cattle was dropped from the statistical model above. Further, pen was used as the subject of the auto-regressive repeated analysis. Degrees of freedom were adjusted using the Kenward-Roger option and multiple treatment […] comparisons were adjusted by the Tukey method. Non-parametric analysis of BCS measurements, via PROC NPAR1WAY, was performed to evaluate differences in dietary treatments at both the initiation of the experiment and during the final week of the experiments. Statistical significance was reported as P≤0.05 and tendencies as 0.05<P≤0.10. […] This analysis, deemed the 'post-acclimation' analysis, removed the first three experimental weeks of data from the experimental dataset, leaving only the fourth to ninth weeks for statistical interpretation. The statistical model was identical to the previously described approach and all data, except for body weight and NEL (due to missing data), were reanalyzed for interpretation.

[1] = 11 g/ton, experimental weeks 4 through 9
[2] = 11 g/ton, sample day, entire experiment
[3] = 11 g/ton, sample day, weeks 4 through 9
[4] = 11 g/ton, weekly averaged, entire experiment
[5] = 11 g/ton, weekly averaged, weeks 4 through 9
[6] = 14.5 g/ton, experimental weeks 4 through 9
[7] = 14.5 g/ton, sample day, entire experiment
[8] = 14.5 g/ton, sample day, weeks 4 through 9
[9] = 14.5 g/ton, weekly averaged, entire experiment
[10] = 14.5 g/ton, weekly averaged, weeks 4 through 9
[11] = 18 g/ton, experimental weeks 4 through 9
[12] = 18 g/ton, sample day, entire experiment
[13] = 18 g/ton, sample day, weeks 4 through 9
[14] = 18 g/ton, weekly averaged, entire experiment
[15] = 18 g/ton, weekly averaged, weeks 4 through 9

## CC[C@@]1([C@@H]2O[C@@H]([C@H]3O[C@@](O)(CO)[C@H](C)C[C@@H]3C)C[C@@H]2C)CC[C@H]([C@]2(C)CC[C@]3(C[C@H](O)[C@@H](C)[C@@H]([C@@H](C)[C@@H](OC)[C@H](C)C(=O)O)O3)O2)O1 [monensin]
11 g/ton, entire experiment
  DMI: 59.7
  MUN: 11.0^b mg/dL
  Milk Fat, %: 4.45%
  Milk Fatty Acid: De novo: 1.08^b g/100 g
  Milk Fatty Acid: Mixed: 1.79 g/100 g
  Milk Fatty Acid: Performed: 1.32 g/100 g
  Milk Fatty Acid: Total FA: 4.20 g/100 g
  Milk Lactose, %: 4.66%
  Milk Protein, %: 3.29%
[1]
  DMI: 59.5
  MUN: 11.1^by mg/dL
  Milk Fat, %: 4.46%
  Milk Fatty Acid: Mixed: 1.79^ab g/100 g
  Milk Fatty Acid: Performed: 1.33 g/100 g
  Milk Fatty Acid: Total FA: 4.21 g/100 g
  Milk Lactose, %: 4.65%
  Milk Protein, %: 3.33%
11 g/ton, sample day milk yield, entire experiment
  NEL: 1.53
[2]
  Day of Sample Milk Yield: 92.0 lb
  ECM: 100.8^a lb
  ECM:Feed: 1.72^a
  FCM: 95.3^a lb
  FCM:Feed: 1.63^a
  Fat yield: 4.05^xy lb
  Lactose yield: 4.30 lb
  Milk:Feed: 1.56^xy
  Protein yield: 3.02 lb
  SCM: 95.2^xy lb
  SCM:Feed: 1.59^ab
[3]
  Day of Sample Milk Yield: 90.6 lb
  ECM: 102.0^ab lb
  ECM:Feed: 1.71^abx
  FCM: 96.2^ab lb
  FCM:Feed: 1.61^b
  Fat yield: 3.98^ab lb
  Lactose yield: 4.23 lb
  Milk:Feed: 1.54^xy
  Protein yield: 3.01 lb
  SCM: 93.9^ab lb
  SCM:Feed: 1.57^abx
11 g/ton, weekly averaged milk yield, entire experiment
  NEL: 1.53
[4]
  ECM: 102.8 lb
  ECM:Feed: 1.73^aby
  FCM: 97.2 lb
  FCM:Feed: 1.64^b
  Fat yield: 4.03 lb
  Lactose yield: 4.27 lb
  Milk Yield: 91.5 lb
  Milk:Feed: 1.57
  Protein yield: 3.00 lb
  SCM: 94.7^xy lb
  SCM:Feed: 1.59^by
[5]
  ECM: 101.6^y lb
  ECM:Feed: 1.72^b
  FCM: 95.9^y lb
  FCM:Feed: 1.62^b
  Fat yield: 3.97^ab lb
  Lactose yield: 4.19 lb
  Milk Yield: 90.4 lb
  Milk:Feed: 1.55
  Protein yield: 2.99 lb
  SCM: 93.5^aby lb
  SCM:Feed: 1.58^b
14.5 g/ton, entire experiment
  DMI: 59.2
  Milk Fat, %: 4.47%
  Milk Fatty Acid: De novo: 1.08^b g/100 g
  Milk Fatty Acid: Mixed: 1.80 g/100 g
  Milk Fatty Acid: Performed: 1.31 g/100 g
  Milk Fatty Acid: Total FA: 4.20 g/100 g
  Milk Lactose, %: 4.67%
  Milk Protein, %: 3.30%
[6]
  DMI: 59.5
  MUN: 11.0^b mg/dL
  Milk Fat, %: 4.50%
  Milk Fatty Acid: Mixed: 1.82^b g/100 g
  Milk Fatty Acid: Performed: 1.32 g/100 g
  Milk Fatty Acid: Total FA: 4.23 g/100 g
  Milk Lactose, %: 4.66%
  Milk Protein, %: 3.33%
14.5 g/ton, sample day milk yield, entire experiment
  NEL: 1.55
[7]
  Day of Sample Milk Yield: 92.6 lb
  ECM: 104.1^b lb
  ECM:Feed: 1.77^b
  FCM: 98.6^b lb
  FCM:Feed: 1.68^b
  Fat yield: 4.09^y lb
  Lactose yield: 4.34 lb
  Milk:Feed: 1.61^y
  Protein yield: 3.03 lb
  SCM: 96.0^y lb
  SCM:Feed: 1.64^b
[8]
  Day of Sample Milk Yield: 91.3 lb
  ECM: 103.3^b lb
  ECM:Feed: 1.75^by
  FCM: 97.6^b lb
  FCM:Feed: 1.66^c
  Fat yield: 4.06^b lb
  Lactose yield: 4.27 lb
  Milk:Feed: 1.57^y
  Protein yield: 3.02 lb
  SCM: 95.2^b lb
  SCM:Feed: 1.62^by
14.5 g/ton, weekly averaged milk yield, entire experiment
  NEL: 1.54
[9]
  ECM: 102.4 lb
  ECM:Feed: 1.74^b
  FCM: 96.9 lb
  FCM:Feed: 1.65^b
  Fat yield: 4.03 lb
  Lactose yield: 4.26 lb
  Milk Yield: 91.0 lb
  Milk:Feed: 1.57
  Protein yield: 2.98 lb
  SCM: 94.5^y lb
  SCM:Feed: 1.61^b
[10]
  ECM: 101.7^y lb
  ECM:Feed: 1.72^b
  FCM: 96.1^y lb
  FCM:Feed: 1.63^b
  Fat yield: 4.00^b lb
  Lactose yield: 4.19 lb
  Milk Yield: 89.8 lb
  Milk:Feed: 1.54
  Protein yield: 2.97 lb
  SCM: 93.7^b lb
  SCM:Feed: 1.58^b
18 g/ton treatment, post-acclimation data
  Sample day milk yield difference from the control treatment: 1.5 pounds
18 g/ton, entire experiment
  DMI: 59.7
  MUN: 10.4^ab mg/dL
  Milk Fat, %: 4.42%
  Milk Fatty Acid: De novo: 1.06^ab g/100 g
  Milk Fatty Acid: Mixed: 1.77 g/100 g
  Milk Fatty Acid: Performed: 1.30 g/100 g
  Milk Fatty Acid: Total FA: 4.13 g/100 g
  Milk Lactose, %: 4.66%
  Milk Protein, %: 3.29%
[11]
  DMI: 60.2
  MUN: 10.4^abx mg/dL
  Milk Fat, %: 4.43%
  Milk Fatty Acid: De novo: 1.07^ab g/100 g
  Milk Fatty Acid: Mixed: 1.78^ab g/100 g
  Milk Fatty Acid: Performed: 1.32 g/100 g
  Milk Fatty Acid: Total FA: 4.16 g/100 g
  Milk Lactose, %: 4.66%
  Milk Protein, %: 3.32%
18 g/ton, sample day milk yield, entire experiment
  NEL: 2.39
[12]
  Day of Sample Milk Yield: 91.6 lb
  ECM: 102.2^ab lb
  ECM:Feed: 1.71^a
  FCM: 96.7^ab lb
  FCM:Feed: 1.61^a
  Fat yield: 3.99^xy lb
  Lactose yield: 4.27 lb
  Milk:Feed: 1.55^x
  Protein yield: 2.98 lb
  SCM: 94.1^xy lb
  SCM:Feed: .157^a
[13]
  Day of Sample Milk Yield: 90.6 lb
  ECM: 101.4^ab lb
  ECM:Feed: 1.67^a
  FCM: 95.8^ab lb
  FCM:Feed: 1.58^ab
  Fat yield: 3.96^ab lb
  Lactose yield: 4.22 lb
  Milk:Feed: 1.51^x
  Protein yield: 2.97 lb
  SCM: 93.4^ab lb
  SCM:Feed: 1.54^a
18 g/ton, weekly averaged milk yield, entire experiment
  NEL: 2.38
[14]
  ECM: 100.9 lb
  ECM:Feed: 1.69^ax
  FCM: 95.5 lb
  FCM:Feed: 1.60^a
  Fat yield: 3.95 lb
  Lactose yield: 4.22 lb
  Milk Yield: 90.4 lb
  Milk:Feed: 1.53
  Protein yield: 2.95 lb
  SCM: 93.1^x lb
  SCM:Feed: 1.56^a
[15]
  ECM: 100.2^xy lb
  ECM:Feed: 1.66^a
  FCM: 94.6^xy lb
  FCM:Feed: 1.56^a
  Fat yield: 3.91^ab lb
  Lactose yield: 4.16 lb
  Milk Yield: 89.4 lb
  Milk:Feed: 1.50
  Protein yield: 2.94 lb
  SCM: 92.3^ab lb
  SCM:Feed: 1.53^a
Entire study
  Milk protein percentage: 3.29%
post-acclimation period
  Milk protein percentage: 3.32%
